Measurements reported in article PMC13266999, “Designing Antibiotics with Inherent Resistance to Efflux as a Strategy to Revive Discovery against Multidrug-Resistant Pathogens” (Journal of Medicinal Chemistry, 2026).
≈ marks a conversion by molar mass, not a printed value. Where “and” joins values, the source holds several entries; their conditions need not be identical. Equal values may be shown once. Read-outs that look alike come from different tables or passages of the source.

How the values were obtained:
E. faecium = assay: MIC (microbroth dilution); format: cell-based, Enterococcus faecium
Protocol: (§1) All bacteria were maintained on tryptic soy agar (TSA), except Streptococcus spp., which were maintained on Columbia agar plates containing 5% horse blood. All bacterial assays were carried out in tryptic soy broth (TSB), except for Streptococcus spp. which were grown in cation-adjusted Mueller Hinton broth containing 2.5% lysed horse blood. Bacteria were grown to stationary phase in liquid culture overnight, with shaking at 200 rpm, before being back diluted to the relevant starting concentration for each assay below. MICs were measured by the microbroth dilution method. […] Absorbance at OD600 was read on a CLARIOstar spectrophotometer (BMG Labtech) and the MIC was defined as the minimum concentration of compound where no visible growth was detected. The compounds were prepared as a DMSO stock and equivalent concentrations of DMSO had no effect on bacterial growth. MICs were also performed in the presence of the outer membrane permeator, polymyxin b nonapeptide (PMBN) following the same MIC method but with the following variation. The 2-fold dilution series of compound was prepared as above, then 50 μL of PMBN at a final concentration of 30 μg/mL was added to relevant wells, while 50 μL/well of blank media was added to the remaining wells. Bacteria were then added at 50 μL/well for a starting concentration as above. Thirty μg/mL of PMBN had no effect on bacterial growth. The MICs were read and defined as above. All animal procedures were performed by the contract research organization Pharmacology Discovery Services Taiwan in accordance with the Guide for the Care and Use of Laboratory Animals. The procedures were approved by the Institutional Ethics Committee of Pharmacology Discovery Services Taiwan, Ltd. (approval no. AB127662), in compliance with animal welfare legislation in Taiwan.

S. haemolyticus = assay: MIC (microbroth dilution); format: cell-based, Staphylococcus haemolyticus; conditions: SH324
Protocol: as §1

K. pneumoniae = assay: MIC (microbroth dilution); format: cell-based, Klebsiella pneumoniae
Protocol: as §1, with “All bacterial assays were carried out in tryptic soy broth (TSB), except for Streptococcus spp. which were grown in cation-adjusted Mueller Hinton broth containing 2.5% lysed horse blood.” left out, “The compounds were prepared as a DMSO stock and equivalent concentrations of DMSO had no effect on bacterial growth.” left out, “Thirty μg/mL of PMBN had no effect on bacterial growth.” left out

S. aureus NCTC 13616 = assay: Time-kill assay; format: cell-based; conditions: 4x MIC, 24 hours
Protocol: Time-kill assays were performed as defined previously.

WT DNA gyrase = target: T1, WT DNA gyrase (Staphylococcus aureus, UniProt P0A0K8+P20831); assay: DNA gyrase supercoiling inhibition assay; format: biochemical, S. aureus; conditions: WT enzyme; read-out: IC50 (converted)
T1 construct: purchased Inspiralis Ltd. (Norwich, UK)
Protocol: (§2) Gyrase inhibition was determined through biochemical assay kits from Inspiralis Ltd. (Norwich, UK), according to manufacturer’s instructions, and as described previously. Briefly, 1U of enzyme was incubated with 0.5 μg of relaxed […] DNA in the presence of compound in 1% DMSO for 30 min at 37 °C. A control reaction contained no compound but still contained 1% DMSO. The reactions were stopped through Stop Buffer addition and the DNA separated through addition of chloroform/iso-amyl alcohol (24;1). Samples were run on a 1% agarose gel at 75 V for 2 h, which was then stained with 1 μg/mL ethidium bromide and visualized using a NuGenius gel imager (Syngene). The intensity of the supercoiled DNA band was quantified using Syngene software, and the inhibition of the supercoiling of the DNA by the compounds was calculated.

[1] = target: T2, GyrA S84L mutant DNA gyrase (Staphylococcus aureus, UniProt P0A0K8+P20831, S84L); assay: DNA gyrase supercoiling inhibition assay; format: biochemical, S. aureus; conditions: S84L mutant enzyme; read-out: IC50 (converted)
T2 construct: purchased Inspiralis Ltd. (Norwich, UK)
Protocol: as §2

S. epidermidis = assay: MIC (microbroth dilution); format: cell-based, Staphylococcus epidermidis; conditions: SE378
Protocol: as §1, with “All bacterial assays were carried out in tryptic soy broth (TSB), except for Streptococcus spp. which were grown in cation-adjusted Mueller Hinton broth containing 2.5% lysed horse blood.” left out, “The compounds were prepared as a DMSO stock and equivalent concentrations of DMSO had no effect on bacterial growth.” left out, “Thirty μg/mL of PMBN had no effect on bacterial growth.” left out

[2] = Plasma protein binding (RED); format: in vitro ADME; conditions: pH 7.4
Protocol: Plasma protein binding was measured using a Rapid Equilibrium Dialysis (RED) assay. Test compounds and control compounds were added to plasma at 10 μM and dialyzed against phosphate-buffered saline (PBS, pH 7.4) for 4 h at 37 °C. […] The percentage of drug bound to plasma proteins was calculated by comparing the analyte response in the plasma compartment with that in the buffer compartment.

E. faecalis = assay: MIC (microbroth dilution); format: cell-based, Enterococcus faecalis
Protocol: as §1, with “All bacterial assays were carried out in tryptic soy broth (TSB), except for Streptococcus spp. which were grown in cation-adjusted Mueller Hinton broth containing 2.5% lysed horse blood.” left out, “The compounds were prepared as a DMSO stock and equivalent concentrations of DMSO had no effect on bacterial growth.” left out, “Thirty μg/mL of PMBN had no effect on bacterial growth.” left out

S. aureus = assay: Serial passaging, MIC of adapted strains; format: cell-based
Protocol: MICs were performed on the first and 10th passage.

[3] = Kinetic aqueous solubility; format: physicochemical; conditions: phosphate-buffered saline with 2% DMSO, pH 7.4, aqueous buffer, kinetic from dmso stock
Protocol: Kinetic aqueous solubility was determined using a standard LC-UV/MS-based assay. Test compounds were prepared from 10 mM DMSO stock solutions and diluted to a nominal concentration of 200 μM in phosphate-buffered saline (PBS, pH 7.4) containing 2% DMSO. Parallel dilutions in DMSO were used as reference standards. Samples were equilibrated at room temperature for 2 h with shaking, then filtered, and the filtrates were analyzed by LC-UV with mass spectrometric confirmation of the analyte peak. Solubility was determined by comparing the UV peak area of the PBS filtrate with those of the DMSO reference standards. The effective range of the assay was 10–200 μM.

Pseudomonas aeruginosa = assay: MIC (microbroth dilution); format: cell-based
Protocol: as §1

Acinetobacter baumannii = assay: MIC (microbroth dilution); format: cell-based
Protocol: as §1

[4] = tested on: NorA overexpressing strain NCTC 13616; assay: Reserpine growth (efflux inhibition) assay; conditions: for AUC of growth curve: biological replicates 1-3, listed as ML-77-005
Protocol: Statistical analyses were performed with GraphPad Prism V9.5.0. […] Unpaired t tests were used when comparing two samples in the gyrase assays.

O=C(O)c1cn(C2CC2)c2cc(N3CCN(Cc4cccc5ccccc45)CC3)c(F)cc2c1=O [Compound 8, 1-Cyclopropyl-6-fluoro-7-(4-(naphthalen-1-ylmethyl)piperazin-1-yl)-4-oxo-1,4-dihydroquinoline-3-carboxylic acid]
MIC (E. faecium; EF205): 2 µg/mL (≈ 4.24 µM) | MIC (E. faecium; NCTC 12204): 2 µg/mL (≈ 4.24 µM) | MIC (S. haemolyticus): 4 µg/mL (≈ 8.48 µM) | MIC (K. pneumoniae; Klebsiella pneumoniae, M6, read-out: MIC): 32 to 64 µg/mL (≈ 67.9 to 136 µM) | MIC (K. pneumoniae; Klebsiella pneumoniae, NCTC13368): > 128 µg/mL | MIC (K. pneumoniae; M6, +PMBN, in µg/mL): 0.5 | MIC (K. pneumoniae; NCTC 13368, +PMBN, in µg/mL): 1-2 | time-kill profile (S. aureus NCTC 13616): comparable bacteriostatic profiles | IC50 (WT DNA gyrase): > 271 µM | IC50 [1]: 94.9 µM | MIC (S. epidermidis): 0.25 to 2 µg/mL | fraction unbound at 4 h, 10 μM [2]: < 0.01 | MIC (E. faecalis; EF602): 2 µg/mL (≈ 4.24 µM) | MIC (E. faecalis; Enterococcus faecalis, NCTC775, NCTC 775, read-out: MIC): 2 µg/mL (≈ 4.24 µM) | MIC (E. faecalis; Enterococcus faecalis, NCTC12201, NCTC 12201, read-out: MIC): 0.125 µg/mL (≈ 0.265 µM) | MIC (E. faecalis; Enterococcus faecalis, NCTC12204, NCTC 12204, read-out: MIC): 2 µg/mL (≈ 4.24 µM) | MIC (E. faecalis; NCTC 775): 2 µg/mL (≈ 4.24 µM) | MIC (E. faecalis; NCTC 12201): 0.5 µg/mL (≈ 1.06 µM) | MIC (S. aureus; ATCC 9144 4x (passaged with Compound 8)): 2 µg/mL | MIC (S. aureus; ATCC 9144 WT): 0.5 µg/mL | MIC (S. aureus; NCTC 13616 4x (passaged with Compound 8)): 4 µg/mL | MIC (S. aureus; NCTC 13616 WT): 2 µg/mL | solubility at 2 h [3]: < 5 µM | MIC (Pseudomonas aeruginosa; NCTC 13437): 128 µg/mL (≈ 271 µM) | MIC (Pseudomonas aeruginosa; NCTC 13437, +PMBN): 32 µg/mL (≈ 67.9 µM) | MIC (Pseudomonas aeruginosa; PAO1, + PMBN): 0.125 µg/mL | MIC (Pseudomonas aeruginosa; Pseudomonas aeruginosa, PAO1, read-out: MIC): > 128 µg/mL | MIC (Acinetobacter baumannii; ATCC 17978, +PMBN): 0.125 µg/mL (≈ 0.265 µM) | MIC (Acinetobacter baumannii; AYE, +PMBN): 32 µg/mL (≈ 67.9 µM) | MIC (Acinetobacter baumannii; Acinetobacter baumannii, ATCC17978, ATCC 17978, read-out: MIC): 4 µg/mL (≈ 8.48 µM) | MIC (Acinetobacter baumannii; Acinetobacter baumannii, BAA1710, BAA-1710 (AYE), read-out: MIC): > 128 µg/mL | AUC of growth curve ([4]; 0.25 MIC + R (reserpine)): 3.096 and 3.206 and 1.480 | AUC of growth curve ([4]; 0.25 MIC): 3.117 and 3.088 and 3.115 | AUC of growth curve ([4]; 0.5 MIC + R (reserpine)): 3.021 and 2.572 and 0.9525 | AUC of growth curve ([4]; 0.5 MIC): 1.068 and 2.766 and 2.838 | efflux liability in reserpine assay ([4]; 0.5x MIC with vs without reserpine): not a substrate of NorA
